From patent publication US12465584B2, “Agent for elevating nitric oxide concentration” (KYOWA HAKKO BIO CO., LTD., priority 2013, dated 2025)
Where two headings read alike, the source gives them in different places.

System: NOx concentration in blood
Settings: male SD rats, blood over 4 hours after last administration, FIG. 1

N[C@@H](CCC(=O)N[C@@H](CS)C(=O)NCC(=O)O)C(=O)O [glutathione, γ-L-Glu-L-Cys-Gly]
amount of increase in the NOx concentration in blood plasma from the baseline (25 mg/kg/day reduced glutathione orally once a day for three days, compared to control group): same tendency | amount of increase in the NOx concentration in blood plasma from the baseline (50 mg/kg/day reduced glutathione orally once a day for three days, compared to control group (P<0.05)): significantly increased
